“And” between values parts separate entries of the source, which are not always exact repeats. Equal entries are not always repeated.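 Cells were grown in 96-well plates and exposed to each compound for 48 hours at five concentrations; endpoints were interpolated linearly between bracketing concentrations, or set to the highest concentration if not reached. GI50 = concentration required for 50% inhibition of growth. TGI: total growth inhibition.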
Assays:
Test in all cases: growth of human tumour cells (NCI), 48 h
HT29 colon = tested on: HT29 colon
CAKI-1 renal = tested on: CAKI-1 renal
COLO 205 colon = tested on: COLO 205 colon
NCI-H23 lung = tested on: NCI-H23 lung
NCI-H226 lung = tested on: NCI-H226 lung
IGROV1 ovarian = tested on: IGROV1 ovarian
SK-OV-3 ovarian = tested on: SK-OV-3 ovarian
SK-MEL-2 melanoma = tested on: SK-MEL-2 melanoma
LOX IMVI melanoma = tested on: LOX IMVI melanoma
786-0 renal = tested on: 786-0 renal

Row | Compound | GI50 (HT29 colon) | TGI (HT29 colon) [µM] | GI50 (CAKI-1 renal) | TGI (CAKI-1 renal) [µM] | GI50 (COLO 205 colon) | TGI (COLO 205 colon) [µM] | GI50 (NCI-H23 lung) | TGI (NCI-H23 lung) [µM] | GI50 (NCI-H226 lung) | TGI (NCI-H226 lung) [µM] | GI50 (IGROV1 ovarian) | TGI (IGROV1 ovarian) [µM] | GI50 (SK-OV-3 ovarian) | TGI (SK-OV-3 ovarian) [µM] | GI50 (SK-MEL-2 melanoma) | TGI (SK-MEL-2 melanoma) [µM] | GI50 (LOX IMVI melanoma) | TGI (LOX IMVI melanoma) | GI50 (786-0 renal) | TGI (786-0 renal) [µM]
1 | CCCSC1=NC2C(N(CC)C(=O)N2CC)N1/N=C/C=C/c1ccccc1[N+](=O)[O-] (centres undefined) | 3.16 µM | > 100 | 2.93 µM | > 100 | 3.13 µM | 56.5 | 4.04 µM | > 100 | 3.32 µM | > 100 | 4.06 µM | > 100 | 6.07 µM | > 100 | 7.26 µM | > 100 | 3.08 µM | 20.7 µM | 4.61 µM | > 100
2 | C#Cc1cccc(Nc2nc3ccc([N+](=O)[O-])cc3nc2Nc2cccc(C#C)c2)c1 | 0.229 µM | 0.562 | 0.297 µM | 0.994 | 0.172 µM | 0.345 | 0.265 µM | 0.911 | 0.251 µM | 1.2 | 0.354 µM | 1.3 | 0.257 µM | 0.862 | 0.26 µM | 0.742 | 0.172 µM | 0.328 µM | 0.226 µM | 0.73
3 | COc1cccc2[nH]c(-c3ccccn3)nc12 | – | > 100 | – | > 100 | – | > 100 | – | > 100 | – | > 100 | – | > 100 | – | > 100 | – | > 100 | – | > 100 µM | – | > 100
4 | COc1cc2nc3cc([N+](=O)[O-])ccc3c(NCCCNCC(C)(C)O)c2cc1OC | 0.212 µM | 0.586 | 1.95 µM | 10.2 | 0.176 µM | 0.442 | 0.196 µM | 0.543 | 0.771 µM | 2.89 | 0.35 µM | 1.3 | 0.506 µM | 2.59 | 0.234 µM | 0.518 | 0.208 µM | 0.485 µM | 0.277 µM | 1.22
5 | OC(c1ccccn1)C1CNc2ccccc21 (centres undefined) | – | > 100 | – | > 100 | – | > 100 | – | > 100 | – | > 100 | – | > 100 | – | > 100 | – | > 100 | – | > 100 µM | – | > 100
6 | COc1ccc(-c2c(-c3cc(OC)c4c(c3)OCO4)noc2N)cc1 | 0.0353 µM | 1.63 | 0.0424 µM | 57.2 | 0.0347 µM | 0.122 | 0.0329 µM | 20.9 | 0.0883 µM | 4.07 | 0.093 µM | > 100 | 0.032 µM | 1.29 | 0.0324 µM | 21.5 | 0.0629 µM | > 51.5 µM | 0.0845 µM | 24.1
7 | Cc1nc(Nc2ccc([N+](=O)[O-])cc2)sc1C(/C=C/c1ccc(N(C)C)cc1)=N/NC(=O)c1ccccc1 | – | > 100 | – | > 100 | – | > 100 | – | > 100 | – | > 100 | – | > 100 | – | > 100 | – | > 100 | – | > 100 µM | – | > 100
8 | CC1=C[S+](c2ccccc2)c2cccc3cc4ccccc4c1c23 (centres undefined) | 0.348 µM | 2.12 | 0.815 µM | 8.02 | 0.147 µM | 0.314 | 1.09 µM | 2.86 | 1.26 µM | 7.47 | 0.467 µM | 3.11 | 2.41 µM | 14.9 | 1.52 µM | 8.55 | 0.697 µM | 2.23 µM | 0.379 µM | –
9 | CC(=O)NNc1nc(C)c(C(/C=C/c2ccc(Cl)cc2)=N/NC(=O)C[N+](C)(C)C)s1 | – | > 100 | – | > 100 | – | > 100 | – | > 100 | – | > 100 | – | > 100 | – | > 100 | – | > 100 | – | > 100 µM | – | > 100
10 | Cc1nc(N)sc1C(=O)Nc1cc(C(=O)NCCCN(C)C)n(C)c1 | > 100 µM | > 100 | > 100 µM | > 100 | > 100 µM | > 100 | > 100 µM | > 100 | > 100 µM | > 100 | > 100 µM | > 100 | > 100 µM | > 100 | > 100 µM | > 100 | > 100 µM | > 100 µM | > 100 µM | > 100
11 | COc1ccccc1S(=O)(=O)Nc1ccc2c(c1)CN(C)C(=O)N2 | 2.55 µM and 2.26 µM | > 100 | 0.994 µM and 3 µM | > 100 | 2.61 µM and 2.8 µM | > 100 | 7.03 µM and 12.8 µM | > 100 | 9.98 µM and 16 µM | > 100 | 6.42 µM and 5.7 µM | > 100 | 4.47 µM and 5.15 µM | > 100 | 6.48 µM and 29.5 µM | > 100 | 3.3 µM and 3.45 µM | 27.8 µM and 21.3 µM | 7.79 µM and 8.82 µM | > 100
12 | O=C(CCCCCCSc1nc(-c2ccc(Cl)cc2)cc(-c2ccc(Cl)cc2)n1)NO | 1.41 µM | 7.46 | 1.34 µM | 4.76 | 1.55 µM | 8.04 | 1.32 µM | 4.33 | 1.71 µM | 17.5 | 1.7 µM | 12.8 | 1.32 µM | 4.19 | 4.02 µM | 18.4 | 1.28 µM | 3.75 µM | 1.59 µM | 6.32
13 | C=C(C)[C@@H]1CC[C@]2(COC3CCCCO3)CC[C@]3(C)[C@H](CC[C@@H]4[C@@]5(C)C=C(C=O)C(=O)C(C)(C)[C@@H]5CC[C@]43C)[C@@H]12 (some centres undefined) | 1.7 µM | 3.49 | 1.34 µM | 2.61 | 1.62 µM | 3.48 | 1.62 µM | 3.63 | 1.95 µM | 4.43 | 2.13 µM | 4.56 | 1.84 µM | 3.32 | 1.56 µM | 3.26 | 1.36 µM | 2.73 µM | 1.65 µM | 3.09
14 | COC(=O)C(Cc1nc2ccc(Cl)cc2[nH]c1=O)/C(=N/NC(N)=O)C(=O)Nc1ccc(Cl)cc1 (centres undefined) | – | > 100 | – | > 100 | – | > 100 | – | > 100 | – | > 100 | – | > 100 | – | > 100 | – | > 100 | – | > 100 µM | – | > 100

From PubChem BioAssay (NCI)
